From the SangsterLogP compilation

Assay: method code SF-HPLC, from DOI: 10.1080/10826079808000494
Settings: pH 6.9

| Compound | logD |
| --- | --- |
| CC1=C(C#N)C(C)(C)C(C#N)=C(C)N1 | 2.47 |
| COC(=O)C1=C(C)NC(C)=C(C(=O)OC)C1c1cccc2c1OCO2 | 3.06 |
| CCOC(=O)C1=C(C)NC(C)=C(C(=O)OC)C1c1cccc(OC)c1OC (stereo not given) | 3.18 |
| CCOC(=O)C1=C(C)NC(C)=C(C(=O)OC)C1c1cc(OC)cc(OC)c1 (stereo not given) | 3.68 |
| COC(=O)C1=C(C)NC(C)=C(C(=O)OCc2cccnc2)C1c1cccc2c1OCO2 (stereo not given) | 3.21 |
| CCOC(=O)C1=C(C)NC(C)=C(C(=O)OC)C1c1cc(OC)c(O)c(OC)c1 (stereo not given) | 2.43 |
| CCOC(=O)C1=C(C)NC(C)=C(C(=O)OC)C1c1ccc(OC)c(OC)c1 (stereo not given) | 3.2 |
| CCOC(=O)C1=C(C)NC(C)=C(C(=O)OC)C1c1cc(OC)c(OC)c(OC)c1 (stereo not given) | 2.99 |
| CCOC(=O)C1=C(C)NC(C)=C(C(=O)OC)C1c1ccccc1 (stereo not given) | 3.74 |
| CCOC(=O)C1=C(C)NC(C)=C(C(=O)OC)C1c1ccccc1OCOC (stereo not given) | 3.38 |

Second part, the compound after the results:

| logD | Compound |
| --- | --- |
| 3.75 | COC(=O)C1=C(C)NC(C)=C(C(=O)OC(C)C)C1c1cccc2c1OCO2 (stereo not given) |
| 3.54 | COCCOC(=O)C1=C(C)NC(C)=C(C(=O)OC(C)C)C1c1cccc2c1OCO2 (stereo not given) |
| 3.92 | CCOC(=O)C1=C(C)NC(C)=C(C(=O)OCC)C1c1cccc2c1OCO2 |
| 3.17 | CCOC(=O)C1=C(C)NC(C)=C(C(=O)OC)C1c1cccc2c1OCCO2 (stereo not given) |
| 4.31 | CCOC(=O)C1=C(C)NC(C)=C(C(=O)OC(C)C)C1c1cccc2c1OCO2 (stereo not given) |
